Patent US20090311716A1, “METHODS TO TREAT OR PREVENT HORMONE-RESISTANT PROSTATE CANCER USING siRNA [sequence] FOR PROTOCADHERIN-PC, OR OTHER INHIBITORS OF PROTOCADHERIN-PC EXPRESSION OR ACTIVITY” (THE TRUSTEES OF COLUMBIA UNIVERSITY IN THE CITY OF NEW YORK, priority 2005, published 2009)
“Also recorded” adds a separate entry of the source.

Columns and labels:
Type in all cases: cell-based, human
LNCaP cells = experiment: Flow cytometry of propidium iodide stained cells, sub-G0 peak (cell death); settings: for dead cells (sub-G0 peak): LNCaP in androgen-free medium 5 days, then siRNA transfection a further 48 hrs
Description: FIG. 18. Selective killing of LNCaP cells grown in androgen-free medium by PCDH-PC siRNA. LNCaP cells grown in normal medium or in androgen-free medium (phenol red-free RPMI supplemented with CS-FBS) for 5 days were transfected with PCDH-PC siRNA (#181) or with lamin siRNA, as indicated for a further 48 hrs. Cells were collected, fixed and stained with propidium iodide and were analyzed by flow cytometry. Bars represent the % population of cells in the sub-G0 peak considered to be apoptotic. The bars are averages based on two measurements under each condition. No siRNAs were untransfected cells.
siRNAs and Transfection of Cultured Human Prostate Cancer Cells. Commercial siRNAs targeting human β-catenin and lamin A were purchased from Dharmacon, Inc. (Chicago, Ill.). Three different siRNAs targeting PCDH-PC were designed using the siRNA Target Finder software program available through Ambion, Inc. (Austin, Tex.). The anti-PCDH-PC siRNAs targeted sequences at position 3043-3062 (#181; SEQ ID NO:4; FIG. 29), 3098-3117 (#190; SEQ ID NO:6; FIG. 31) or 3345-3364 (#208; SEQ ID NO:7; FIG. 32) on the PCDH-PC mRNA. The 21 bp siRNAs were constructed using the 19 bp core sequences described above with 2 nucleotide UU overhangs and these siRNAs were produced and provided by Ambion, Inc. siRNAs were transfected or co-transfected (with other expression vectors as described) into LNCaP cells at 100 nM final concentrations using Lipofectamine 2000 transfection reagent (Invitrogen Life Technologies, Inc.) in serum-free medium as instructed by the manufacturer. 48 hrs after transfection, cells were harvested and extracted for protein or RNA as described below.

PCDH-PC = experiment: Western blot of myc-tagged PCDH-PC in LNCaP cells co-transfected with pPCDH-PC-myc and siRNA; settings: siRNA 100 nM co-transfected with pPCDH-PC-myc, 48 hrs; listed as #181
Source text: FIGS. 4A-4B. siRNAs against PCDH-PC suppress PCDH-PC expression and NE transdifferentiation of LNCaP cells. FIG. 4A. LNCaP cells were transfected with the pPCDH-PC-myc expression vector and were co-transfected with siRNA against human lamin or siRNAs 181, 190 or 208 designed to suppress PCDH-PC expression. A Western blot made against protein extracts from these cells were probed with anti-myc (Top Panel) to identify expression of the 110 kd PCDH myc-tagged protein, anti-β-actin (Middle Panel) or anti-human E-cadherin (Bottom Panel). FIG. 4B. A repeated experiment that includes control LNCaP cells (no transfection) or pCMV-PCDH-myc transfected LNCaP cells co-transfected with siRNAs against lamin or against PCDH-PC (181, 190 or 208). The Western blot was probed for NSE expression (Top Panel) or for β-actin expression (Bottom Panel).
Expression Vectors, Transfection Protocols and Luciferase/β-Glactosidase Assays. PCDH-PC cDNA was inserted into the mammalian expression vectors pcDNA3 (Invitrogen Life Technologies, Inc., Carlsbad, Calif.) or into pCMV-myc (BD Biosciences, Clontech, Inc., Palo Alto, Calif.) so that the PCDH-PC product generated from this vector (pPCDH-PC-myc) has a C-terminal myc tag. An expression vector containing cDNA encoding a mutated (stabilized) form of human β-catenin (Tetsu and McCormick, 1999) was used. A dominant-negative Tcf expression vector used was previously described (Chen et al., 2001). The Tcf-sensitive reporter vector, pTOP and a CMV-promoted β-galactosidase expression vector were obtained from Upstate Biotechnology, Inc. Transfections used for protein or RNA extractions were done in 35 cm^2 dishes with cells plated at 50% density 12-16 hrs prior. […] Luciferase activity in cell extracts was measured using the Luciferase Assay System of Promega, Inc. (Madison, Wis.). β-galactosidase activity was also measured in the same cell extracts using the β-galactosidase Enzyme Assay System of Promega, Inc. All experiments involving luciferase reporter vectors were done in triplicate for each point. […]

[1] = tested on: Tcf-sensitive reporter pTOP (wnt signaling); experiment: Tcf-sensitive pTOP luciferase reporter assay (wnt signaling) in LNCaP cells; settings: 7 days in androgen-free medium
Source text: FIGS. 5A-5C. siRNAs against PCDH-PC suppress PCDH-PC expression, TCF-mediated transcription and NE transdifferentiation in LNCaP cells grown in androgen-free medium. FIG. 5A. RNAs extracted from LNCaP cells grown in normal medium (Control) or in androgen-free medium (CS-FBS, None) were compared toRNAs from LNCaP cells grown in androgen-free medium transfected with siRNAs against PCDH-PC (181, 190 and 208) or siRNA against lamin by RT-PCR using primers specific for PCDH-PC (Top Panel) or β-actin (Bottom Panel). PCR reaction products were electrophoresed on agarose gels and were visualized after ethidium bromide staining under UV light. FIG. 5B. LNCaP cells cultured in normal medium (Control) were compared to LNCaP cells grown in androgen-free medium for 7 days without or with transfection with siRNA 181 against PCDH-PC or siRNA against lamin for expression of luciferase from the TCF-sensitive reporter pTOP for normalized luciferase activity. FIG. 5C. […]
Expression Vectors, Transfection Protocols and Luciferase/β-Glactosidase Assays. […] Luciferase activity in cell extracts was measured using the Luciferase Assay System of Promega, Inc. (Madison, Wis.). β-galactosidase activity was also measured in the same cell extracts using the β-galactosidase Enzyme Assay System of Promega, Inc. All experiments involving luciferase reporter vectors were done in triplicate for each point.

Akt = experiment: Western blot of phosphorylated Akt / MDM2 in LNCaP cells in androgen-free medium; settings: androgen-free medium 5 days then transfected 2 days
Source text: FIG. 15. Proteins were extracted from untransfected LNCaP cells maintained in androgen free medium for 7 days (CS-FBS Control) or from 7-day androgen-free LNCaP cells that were transfected for 48 hrs with β-catenin siRNA (CS-FBS+beta-Cat siRNA) or dominant negative Tcf (CS-FBS+DN-Tcf) or PCDH-PC siRNA 181 (CS-FBS+PCDH-PC siRNA) or lamin siRNA (CS-FBS+lamin siRNA). Equal aliquots of protein were electrophoresed on a polyacrylamide gel and then blotted onto a PVDF filter to produce a Western blot. The same blot was probed with an antibody against Akt protein (top panel) or against phosphorylated Akt (ser 473) (second panel) or with an antibody against MDM2 protein (third panel) or phosphorylated MDM2 protein (bottom panel). […] The blockade of Akt phosphorylation by PCDH-PC siRNA could be involved in the process through which this molecule induces the death of prostate cancer cells under androgen-free conditions. […]
Preparation of cell extracts and western blots. Cells were harvested and protein extracts prepared, quantified and used to prepare Western blots as previously described (Example 1; Yang et al., 2005). […] Recombinant Wnt-1 protein (HA-tagged) was detected with anti-HA antibody (Clontech Inc., Mountain View, Calif.). Antibody binding to the Western blot was detected as previously described (Yang et al., 2005). […]

Q: Which results are given for “siRNA #181: 21 bp siRNA targeting PCDH-PC mRNA position 3043-3062, 19 bp core with UU overhangs (SEQ ID NO:4) (AAGCATTGAAGCACCAGTGAC; listed as DNA, further chemistry not given here)”?
A: selectivity of cell death induction, androgen-free versus normal medium (LNCaP cells; LNCaP): specific to cells grown in androgen free medium, not in normal medium; dead cells (sub-G0 peak) (LNCaP cells; listed as #181): approximately 58%; dead cells (sub-G0 peak) (LNCaP cells; listed as PCDH-PC siRNA): 58%; dead cells (sub-G0 peak) (LNCaP cells; listed as siRNA against PCDH-PC): 58%; cell death relative to untransfected cells or cells transfected with lamin siRNA (LNCaP cells; LNCaP, androgen-free medium 7 days): greater than 4 ×; expression of myc-tagged PCDH-PC polypeptide (PCDH-PC): suppressive effects; also recorded: most effective; induced luciferase expression from pTOP reporter (wnt signaling) [1]: completely suppressed; Akt phosphorylation (pAkt; and MDM2 phosphorylation) (Akt): reduced
